Experimental data taken from patent publication US10215749B2, “Ported parallel plate flow chamber and methods for use thereof” (priority 2013, dated 2019).

System: Human Aortic Endothelial Cells
Test: Gene expression differences (Affymetrix PRIMEVIEW microarray) under shear stress conditions with PI-103 treatment in a flow chamber
Format: cell-based
Procedure: Cells were cultured on a collagen I-coated growth surface under static conditions (no flow) until confluency was reached. Cells were then either exposed to fluid flow in a flow chamber at 0.2 or 1.0 Pa for 20 hours, or left in static culture for the same amount of time. At 20 hours, RNA was isolated from the cells using an Ambion MIRVANA™ RNA isolation kit (Life Technologies, Foster City Calif., United States of America) and processed for analysis on Affymetrix PRIMEVIEW™ arrays (Affymetrix, Inc., Santa Clara, Calif., United States of America). Three experiments were performed for each condition, providing replicates for microarray analysis.
Gene expression differences in Human Aortic Endothelial Cells were also tested under different shear stress conditions, using a flow chamber device, in the presence or absence of the PI3K/Akt and mTOR inhibitor PI-103 (3-[4-(4-morpholinyl)pyrido[3′,2′:4,5]furo[3,2-d]pyrimidin-2-yl]-phenol); CAS No. 371935-74-9) at a concentration of 100 nM.
Cells were grown on a collagen-I coated growth surface and treated with 100 nM PI-103 in the presence of flow. For the 4 hour time point, cells were exposed to fluid flow for 16 hours and treated with PI-103 for the last 4 hours in the presence of flow. Cells were also treated with PI-103 for the entire duration of flow (20 hours). Data was generated using RNA extracted as described in Example 1, and analyzed on Affymetrix PRIMEVIEW™ arrays (Affymetrix, Inc.,). Three experiments were performed for each condition, providing replicates for microarray analysis.

`Oc1cccc(-c2nc(N3CCOCC3)c3oc4ncccc4c3n2)c1` [PI-103, 3-[4-(4-morpholinyl)pyrido[3′,2′:4,5]furo[3,2-d]pyrimidin-2-yl]-phenol] was tested, and the “No. of Genes Changed” value (0.2 Pa shear stress, 100 nM PI-103, 4 hr drug exposure, vs non-treated cells under same flow) was 830, the “No. of Genes Changed” value (0.2 Pa shear stress, 100 nM PI-103, 20 hr drug exposure, vs non-treated cells under same flow) was 113 and the “No. of Genes Changed” value (1.0 Pa shear stress, 100 nM PI-103, 4 hr drug exposure, vs non-treated cells under same flow) was 1563. The “No. of Genes Changed” value (1.0 Pa shear stress, 100 nM PI-103, 20 hr drug exposure, vs non-treated cells under same flow) was 119, the “No. of Genes Changed” value (No Shear (static), 100 nM PI-103, 4 hr drug exposure, vs non-treated cells under same condition) was 130 and the “No. of Genes Changed” value (No Shear (static), 100 nM PI-103, 20 hr drug exposure, vs non-treated cells under same condition) was 159.
